In US20200216439A1, “HETERO-1,5,6,7-TETRAHYDRO-4H-INDOL-4-ONES” (BAYER PHARMA AKTIENGESELLSCHAFT, priority 2015, published 2020):

These compounds were tested against T1, catalytic domain of human Bub1 (amino acids 704-1085) (Homo sapiens, UniProt O43683) (assay: Bub1 kinase assay (TR-FRET)). Conditions: TR-FRET; ATP 10 μM, peptide substrate 1 μM; 60 min at 22° C.; average or median if tested more than once; read-out: Inhibition of Bub1 kinase IC50.
T1 construct: catalytic domain of human Bub1 (amino acids 704-1085); His6 (N); made in house; host or cells: Hi5 insect cells
Assay type: biochemical
Procedure, shortened: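 Human Bub1 catalytic domain (704-1085, His6-tagged, Hi5-expressed, ~200 ng/mL) preincubated with compound 15 min at 22 °C, then reacted 60 min at 22 °C with 10 μM ATP and 1 μM biotinylated peptide substrate, pH 7.5. EDTA stop; TR-FRET 665/620 ratio; IC50 from 4-parameter fit, 11 concentrations in duplicate.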

T1 sequence (O43683 704-1085): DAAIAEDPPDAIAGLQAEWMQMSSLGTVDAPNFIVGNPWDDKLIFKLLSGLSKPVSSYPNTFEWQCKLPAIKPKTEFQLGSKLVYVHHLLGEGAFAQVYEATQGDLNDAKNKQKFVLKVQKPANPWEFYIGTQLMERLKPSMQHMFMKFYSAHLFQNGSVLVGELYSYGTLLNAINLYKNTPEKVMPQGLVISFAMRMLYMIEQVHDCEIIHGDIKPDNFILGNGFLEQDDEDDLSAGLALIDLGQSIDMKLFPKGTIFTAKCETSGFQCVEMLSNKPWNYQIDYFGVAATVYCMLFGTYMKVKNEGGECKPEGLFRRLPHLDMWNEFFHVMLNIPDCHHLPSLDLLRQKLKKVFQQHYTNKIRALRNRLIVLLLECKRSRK

`COC(=O)N1CC(=O)c2c([nH]c(-c3ccnc(NC(=O)[C@@H]4C[C@@H]4F)c3)c2Nc2ccccc2)C1` (relative stereo) [Example 139, Methyl 3-anilino-2-[2-({[rel-(1S,2S)-2-fluorocyclopropyl]carbonyl}amino)pyridin-4-yl]-4-oxo-1,4,5,7-tetrahydro-6H-pyrrolo[2,3-c]pyridine-6-carboxylate] and `CC(C)OC(=O)N1CC(=O)c2c([nH]c(-c3ccnc(NC(=O)[C@@H]4C[C@@H]4F)c3)c2Nc2ccccc2)C1` [Example 216, Propan-2-yl 2-[2-([(1S,2S)-2-fluorocyclopropyl]carbonylamino)pyridin-4-yl]-4-oxo-3-(phenylamino)-1,4,5,7-tetrahydro-6H-pyrrolo[2,3-c]pyridine-6-carboxylate] are within 1.5-fold of each other in IC50: 7 nM for the first, 6 nM for the second.

Compared with `CC(=O)Nc1cc(-c2[nH]c3c(c2Nc2ccccc2)C(=O)CN(C(=O)CC(C)(C)C)C3)ccn1` [Example 174, N-{4-[3-Anilino-6-(3,3-dimethylbutanoyl)-4-oxo-4,5,6,7-tetrahydro-1H-pyrrolo[2,3-c]pyridin-2-yl]pyridin-2-yl}acetamide], `CC(=O)Nc1cc(-c2[nH]c3c(c2Nc2ccccc2)C(=O)CN(C(=O)OC(C)(C)C)C3)ccn1` [Example 23, tert-Butyl 2-[2-(acetylamino)pyridin-4-yl]4-oxo-3-(phenylamino)-1,4,5,7-tetrahydro-6H-pyrrolo[2,3-c]pyridine-6-carboxylate] is 210-fold higher in IC50: 8 nM for the first, 1660 nM for the second. The first is the more potent here.

Going from `Cn1cnc(S(=O)(=O)N2CC(=O)c3c([nH]c(-c4ccncc4)c3Nc3ccccc3)C2)c1` [Example 73, 6-[(1-Methyl-1H-imidazol-4-yl)sulfonyl]-3-(phenylamino)-2-(pyridin-4-yl)-1,5,6,7-tetrahydro-4H-pyrrolo[2,3-c]pyridin-4-one] to `CC(=O)Nc1cc(-c2[nH]c3c(c2Nc2ccccc2)C(=O)CN(C(=O)CCO)C3)ccn1` [Example 189], the IC50 rises from 8 nM to 16 nM (2-fold). The first is the more potent here.

`CC(=O)Nc1cc(-c2[nH]c3c(c2Nc2ccc(F)cc2)C(=O)CN(C(=O)OC(C)(C)C)C3)ccn1` [Example 297, tert-Butyl 2-(2-acetamidopyridin-4-yl)-3-[(4-fluorophenyl)amino]-4-oxo-1,4,5,7-tetrahydro-6H-pyrrolo[2,3-c]pyridine-6-carboxylate] and `Cc1ccc(F)cc1C(=O)Nc1cc(-c2[nH]c3c(c2Nc2ccccc2)C(=O)CN(C(=O)OC(C)(C)C)C3)ccn1` [Example 268, tert-Butyl 2-2-[(5-fluoro-2-methylbenzoyl)amino]pyridin-4-yl-4-oxo-3-(phenylamino)-1,4,5,7-tetrahydro-6H-pyrrolo[2,3-c]pyridine-6-carboxylate] are within 1.5-fold of each other in IC50: 55 nM for the first, 58 nM for the second.

Compared with `O=C1CNCc2[nH]c(-c3ccncc3OCC(F)F)c(Nc3ccccc3)c21` [Example 224, 3-anilino-2-[3-(2,2-difluoroethoxy)pyridin-4-yl]-1,5,6,7-tetrahydro-4H-pyrrolo[2,3-c]pyridin-4-one], `COc1cnccc1-c1[nH]c2c(c1Nc1ccccc1)C(=O)COC2` [Example 43, 2-(3-Methoxypyridin-4-yl)-3-(phenylamino)-1,7-dihydropyrano[3,4-b]pyrrol-4(5H)-one] is 2.6-fold lower in IC50: 222 nM for the first, 84 nM for the second.

First: CN1CCN(C(=O)N2CC(=O)c3c([nH]c(-c4ccnc(NC(=O)[C@@H]5C[C@@H]5F)c4)c3Nc3ccccc3)C2)CC1 [Example 209, (1S,2S)-2-Fluoro-N-(4-6-[(4-methylpiperazin-1-yl)carbonyl]4-oxo-3-(phenylamino)-4,5,6,7-tetrahydro-1H-pyrrolo[2,3-c]pyridin-2-ylpyridin-2-yl)cyclopropanecarboxamide]
Second: O=C1CNCc2[nH]c(-c3ccnc(NC(=O)C4CC4(F)F)c3)c(Nc3ccccc3)c21 (racemic) [Example 137, (1RS)—N-[4-(3-Anilino-4-oxo-4,5,6,7-tetrahydro-1H-pyrrolo[2,3-c]pyridin-2-yl)pyridin-2-yl]-2,2-difluorocyclopropanecarboxamide]
The IC50 of the first is 9.1-fold lower: 7 nM for the first, 64 nM for the second. The first is the more potent here.

Compared with `COc1ccc(C(=O)Nc2cc(-c3[nH]c4c(c3Nc3ccccc3)C(=O)CN(C(=O)SC(C)(C)C)C4)ccn2)cc1F` [Example 305, S-tert-butyl 3-anilino-2-{2-[(3-fluoro-4-methoxybenzoyl)amino]pyridin-4-yl}-4-oxo-1,4,5,7-tetrahydro-6H-pyrrolo[2,3-c]pyridine-6-carbothioate], `COc1ccc(C(=O)Nc2cc(-c3[nH]c4c(c3Nc3ccccc3)C(=O)CN(C(=O)OC(C)(C)C)C4)ccn2)cc1F` [Example 283, tert-Butyl 2-2-[(3-fluoro-4-methoxybenzoyl)amino]pyridin-4-yl-4-oxo-3-(phenylamino)-1,4,5,7-tetrahydro-6H-pyrrolo[2,3-c]pyridine-6-carboxylate] is 6.1-fold lower in IC50: 233 nM for the first, 38 nM for the second.

Compared with `COc1ccc(C(=O)Nc2cc(-c3c(Nc4ccccc4)c4c(n3C)CN(C(=O)OC(C)(C)C)CC4=O)ccn2)cc1F` [Example 286, tert-Butyl 2-2-[(3-fluoro-4-methoxybenzoyl)amino]pyridin-4-yl-1-methyl-4-oxo-3-(phenylamino)-1,4,5,7-tetrahydro-6H-pyrrolo[2,3-c]pyridine-6-carboxylate], `Cc1cc(F)ccc1C(=O)Nc1cc(-c2[nH]c3c(c2Nc2ccccc2)C(=O)CNC3)ccn1` [Example 264, 4-Fluoro-2-methyl-N-4-[4-oxo-3-(phenylamino)-4,5,6,7-tetrahydro-1H-pyrrolo[2,3-c]pyridin-2-yl]pyridin-2-ylbenzamide] is 13-fold lower in IC50: 1050 nM for the first, 81 nM for the second. The second is the more potent here.

Going from `Cc1nccc(-c2[nH]c3c(c2Nc2ccccc2)C(=O)COC3)n1` [Example 15, 2-(2-Methylpyrimidin-4-yl)-3-(phenylamino)-1,7-dihydropyrano[3,4-b]pyrrol-4(5H)-one] to `CCNC(=O)N1CC(=O)c2c([nH]c(-c3ccnc(C)n3)c2Nc2ccccc2)C1` [Example 25, N-Ethyl-2-(2-methylpyrimidin-4-yl)-4-oxo-3-(phenylamino)-1,4,5,7-tetrahydro-6H-pyrrolo[2,3-c]pyridine-6-carboxamide], the IC50 falls from 1200 nM to 254 nM (4.7-fold).

Going from `CC(=O)Nc1cc(-c2[nH]c3c(c2Nc2ccc(C)cc2)C(=O)CN(C(C)=O)C3)ccn1` [Example 319, N-(4-(6-Acetyl-3-[(4-methylphenyl)amino]-4-oxo-4,5,6,7-tetrahydro-1H-pyrrolo[2,3-c]pyridin-2-yl)pyridin-2-yl)acetamide] to `O=C(Nc1cc(-c2[nH]c3c(c2Nc2ccccc2)C(=O)CNC3)ccn1)c1cnn[nH]1` [Example 275, N-4-[4-Oxo-3-(phenylamino)-4,5,6,7-tetrahydro-1H-pyrrolo[2,3-c]pyridin-2-yl]pyridin-2-yl-1H-1,2,3-triazole-5-carboxamide], the IC50 falls from 192 nM to 113 nM (1.7-fold). The second is the more potent here.

First: C[S+]([O-])CC(=O)Nc1cc(-c2[nH]c3c(c2Nc2ccccc2)C(=O)COC3)ccn1 (centres unmarked) [Example 47, 2-(Methylsulfinyl)-N-{4-[4-oxo-3-(phenylamino)-1,4,5,7-tetrahydropyrano[3,4-b]pyrrol-2-yl]pyridin-2-yl}acetamide]
Second: O=C(Nc1cc(-c2[nH]c3c(c2Nc2ccccc2)C(=O)CNC3)ccn1)c1cncs1 [Example 135]
The IC50 of the first is 6.7-fold higher: 341 nM for the first, 51 nM for the second.

`CC(C)(C)OC(=O)N1CC(=O)c2c([nH]c(-c3ccncc3Br)c2Nc2ccccc2)C1` [Example 100, tert-Butyl 2-(3-bromopyridin-4-yl)-4-oxo-3-(phenylamino)-1,4,5,7-tetrahydro-6H-pyrrolo[2,3-c]pyridine-6-carboxylate] gave an IC50 of 26 nM.
